Assay results from patent US20020142033A1, “Method for treating incontinence” (priority 1998, published 2002).

Conditions: human, in vivo

With CCNCC#CCOC(=O)C(O)(c1ccccc1)C1CCCCC1 (stereo not shown) [desethyloxybutynin] the “t½ of DESOXY compared to OXY” value was “shorter t½ life compared to OXY”.
